{
  "source": "patent US20220370463A1",
  "about": "“STABILIZED C-FMS INTRACELLULAR FRAGMENTS (FICD) PROMOTE OSTEOCLAST DIFFERENTIATION AND ARTHRITIC BONE EROSION” (New York Society for the Relief of the Ruptured and …, priority 2019, published 2022)",
  "key": {"L-FICD generation": {"system": "L-FICD generation", "test": "Screening of 53 protease inhibitors from a protease library for L-FICD generation", "format": "cell-based", "from_the_text": "To identify the protease(s) responsible for cleavage of H-FICD in an unbiased manner, we performed a screening of 53 protease inhibitors using a protease library. The best hits associated with the inhibition of L-FICD generation were MDL28170 and PD150606—two calpain inhibitors—along with MMP inhibitors and γ-secretase inhibitors. Calpain is the family of calcium-dependent cytosolic cysteine proteases expressed ubiquitously in mammals and many other organisms (Pfaff, M., Du, X. & Ginsberg, M. H. Calpain cleavage of integrin beta cytoplasmic domains. FEBS Lett 460, 17-22 (1999)), and calpain-dependent cleavages contribute to modulating various cellular functions such as apoptosis, proliferation and migration (Deshpande, R. V. et al. Calpain expression in lymphoid cells. Increased mRNA and protein levels after cell activation. J Biol Chem 270, 2497-2505 (1995). Svensson, L. et al. Calpain 2 controls turnover of LFA-1 adhesions on migrating T lymphocytes. PloS one 5, e15090, doi:10.1371/journal.pone.0015090 (2010).). […] Since calpain is activated by calcium, we examined if calcium signaling could compensate for M-CSF signaling to generate FICDs. In the absence of c-FMS signaling, calcium signaling was able to promote the cleavage of […] in the nucleus, and […] reversed the effect of calcium signaling on L-FICD processing (FIG.10C). […]"}, "[1]": {"system": "FICDs (c-FMS intracellular fragments)", "test": "FICD generation in M-CSF-cultured human CD14+ cells, immunoblot of whole lysates", "format": "cell-based", "details": "MDL28170 treatment", "procedure": "FIGS. 8A-8I show c-FMS expression in synovial macrophages. (A) The levels of M-CSF in synovial fluids from patients with rheumatoid arthritis (RA, n=13) and osteoarthritis (OA, n=8) were measured. (B) Mass spectrometry analysis for proteins from ˜50 kDa bands (red box) identified c-FMS as one of top genes. An image of coomassie blue stained genes showing immunoprecipitated cells lysates with either anti-DDK-tag antibodies or IgG control. (C-G) Human CD14+ cells were cultured with M-CSF (20ng/ml). Immunoblot of c-FMS with different antibodies against C-terminal of c-FMS; (C) C-20, (D) D-8, and (E) #3152. Immunoblot of c-FMS with different antibodies against N-terminal of c-FMS; (F) #61701, (G) H-300. (H-I) Human CD14+ cells were cultured with M-CSF (20 ng/ml) for 8 hours to induce early signals, and then BB94 (10 uM) was added for 2 days. (H) Immunoblot with anti c-FMS and α-tubulin antibodies in whole lysates (n=3). (I) Soluble c-FMS was detected by ELISA (n=3). […] All data are shown as mean±SEM. *; p<0.05 significant by two-tailed, paired t-test (A and I). M: mature form, I: immature form, H: hgh mass, L: low mass.\nFIGS. 10A-10F show calpain regulates FICD generation. (A and B) Human CD14+ cells were cultured with M-CSF (20 ng/ml) for 8 hours to induce early signals and then (A) MDL 28170(0, 1, 2, 5 uM) or (B) PD150606 (0, 2, 5 uM) was added for 2 days. […]"}},
  "data": [
    {"substance": "MDL28170", "values": [
      {"measurement": "inhibition of L-FICD generation (hit in screening)", "setting": "L-FICD generation", "value": "best hits"},
      {"measurement": "L-FICD", "setting": "[1]", "value": "decreased"}
    ]}
  ]
}
